Assay results taken from patent US5185319A, “Stabilization of organic compounds” (National Research Development Corporation, priority 1989, dated 1993).

Assays:
porcine insulin = porcine insulin (Sus scrofa, UniProt P01315); test: Stability of insulin in solution with chelating agent, reverse phase HPLC; assay type: physicochemical; settings: pH 7.0 solution; for effect on stability of insulin (amount of insulin present as percentage of the original amount): 100 μM chelating agent, 4, 8 and 12 weeks
Sequence of porcine insulin (P01315 25-54 limits assumed): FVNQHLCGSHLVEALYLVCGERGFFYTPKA
Sequence of porcine insulin (P01315 88-108 limits assumed): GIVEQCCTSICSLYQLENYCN
Protocol: A solution was prepared corresponding to that described in Example 1 containing porcine insulin and being pyrogen-free but not sterile. For comparative purposes a further solution was prepared in which the hydroxypyridone was replaced by the alternative chelating agent 3-hydroxy-2-methyl-4-pyrone.
The solutions were incubated at either 4° C. or 37° C. and the stability of the insulin was studied over a period of 12 weeks through use of the reverse phase HPLC method described by Seipke et al, Angew. Chem. Int. Ed. Engl., 1986, 25, 535-552 and by Grau, Diabetologia, 1985, 28, 458-463. The amount of insulin present in the solution at 4, 8 and 12 weeks was then calculated as a percentage of the original amount present.

insulin = test: Investigation of chelating agents for stabilization of insulin; assay type: physicochemical

COCCn1ccc(=O)c(O)c1C [3-hydroxy-1-(2'-methoxyethyl)-2-methylpyrid-4-one]
degradation of insulin over the whole period of 12 weeks (porcine insulin; incubated at 4° C., 100 μM chelating agent): no degradation was observed
effect on stability of insulin (amount of insulin present as percentage of the original amount) (porcine insulin; incubated at 4° C.): stabilises insulin
effect on stability of insulin (amount of insulin present as percentage of the original amount) (porcine insulin; incubated at 37° C.): stabilises insulin, to some extent

O=C(O)CN(CCN(CC(=O)O)CC(=O)O)CC(=O)O [ethylene diamine tetra-acetic acid]
stabilizing effect on insulin (insulin): no stabilizing effect

Cc1occc(=O)c1O [3-hydroxy-2-methyl-4-pyrone]
effect on stability of insulin (amount of insulin present as percentage of the original amount) (porcine insulin; incubated at 4° C.): destabilises insulin
effect on stability of insulin (amount of insulin present as percentage of the original amount) (porcine insulin; incubated at 37° C.): destabilises insulin
stabilizing effect on insulin (insulin): no stabilizing effect
